# Data reported in US4757082A, “Method of inhibiting aromatase” (Eli Lilly and Company, priority 1984, dated 1988).
# pEC50: −log10 of the molar value.
# Molecular target: T1, aromatase (Rattus norvegicus, UniProt P22443)
# T1 construct: ovarian microsomes are obtained from rats treated with pregnant mares serum gonadotropin; from tissue; host or cells: ovarian microsomes from rats treated with pregnant mares serum gonadotropin
# T1 sequence (P22443 1-508): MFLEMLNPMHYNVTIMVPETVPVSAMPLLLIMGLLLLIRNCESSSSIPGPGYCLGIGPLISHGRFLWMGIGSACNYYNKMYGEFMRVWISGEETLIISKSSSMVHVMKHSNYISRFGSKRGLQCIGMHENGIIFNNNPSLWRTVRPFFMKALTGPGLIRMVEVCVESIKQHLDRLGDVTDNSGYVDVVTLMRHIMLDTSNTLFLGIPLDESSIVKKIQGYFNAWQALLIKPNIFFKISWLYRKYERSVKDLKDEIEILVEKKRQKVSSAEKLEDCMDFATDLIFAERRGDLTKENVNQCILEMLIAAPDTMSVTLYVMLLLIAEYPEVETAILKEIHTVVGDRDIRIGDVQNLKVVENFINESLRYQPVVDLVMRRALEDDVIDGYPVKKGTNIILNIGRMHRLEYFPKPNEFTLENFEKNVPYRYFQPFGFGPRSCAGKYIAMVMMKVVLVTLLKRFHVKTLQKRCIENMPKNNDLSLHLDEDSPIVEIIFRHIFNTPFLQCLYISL
# Assay: Aromatase inhibition in the rat ovarian microsome assay
# Type: biochemical
# Conditions: rat ovarian microsomes; substrate (androstenedione) concentration 0.1 μM
# Experimental: In this test system, ovarian microsomes are obtained from rats treated with pregnant mares serum gonadotropin. Test compounds are added to reaction vials containing 0.1 μM 4-androstene-3,17-dione, 100,000 dpm 1,2[^3 H]-androstenedione, the microsomes and a NADPH generating system. The concentrations of the inhibitors tested ranged between 0.005 and 10 μM.
compound,measurement,value
"c1ccc2c(c1)CCc1ccccc1C2n1ccnc1 [1-(10,11-dihydro-5H--dibenzo-[a,d]cyclohepten-5-yl)-1H--imidazole nitrate]",pEC50,5.70
